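Five compound concentrations were applied to cells in 96-well plates for 48 hours; endpoints were derived by simple linear interpolation of the resulting dose-response curve. Abbreviation: GI50, concentration required for 50% inhibition of growth. TGI: total growth inhibition.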
Key:
Assay in all cases: NCI-60 cell line screen, 48 h
SF-295 CNS = tested on: SF-295 CNS
EKVX NSCLC = tested on: EKVX NSCLC
HCT-116 colon = tested on: HCT-116 colon
HCT-15 colon = tested on: HCT-15 colon
IGROV1 ovarian = tested on: IGROV1 ovarian
SK-OV-3 ovarian = tested on: SK-OV-3 ovarian
SK-MEL-5 melanoma = tested on: SK-MEL-5 melanoma
NCI/ADR-RES ovarian = tested on: NCI/ADR-RES ovarian
NCI-H460 lung = tested on: NCI-H460 lung
UACC-257 melanoma = tested on: UACC-257 melanoma
KM12 colon = tested on: KM12 colon
HOP-92 NSCLC = tested on: HOP-92 NSCLC
SW-620 colon = tested on: SW-620 colon
SF-268 CNS = tested on: SF-268 CNS
HCC-2998 colon = tested on: HCC-2998 colon
SR leukemia = tested on: SR leukemia
BT-549 breast = tested on: BT-549 breast
HOP-62 NSCLC = tested on: HOP-62 NSCLC
CCRF-CEM leukemia = tested on: CCRF-CEM leukemia
MDA-MB-435 = tested on: MDA-MB-435
OVCAR-3 ovarian = tested on: OVCAR-3 ovarian
SNB-75 CNS = tested on: SNB-75 CNS
M14 melanoma = tested on: M14 melanoma
LOX IMVI melanoma = tested on: LOX IMVI melanoma
NCI-H522 lung = tested on: NCI-H522 lung
SN12C renal = tested on: SN12C renal
MCF7 breast = tested on: MCF7 breast
OVCAR-5 ovarian = tested on: OVCAR-5 ovarian
A498 renal = tested on: A498 renal
T-47D breast = tested on: T-47D breast
HS 578T breast = tested on: HS 578T breast
UACC-62 melanoma = tested on: UACC-62 melanoma
MDA-N = tested on: MDA-N
COLO 205 colon = tested on: COLO 205 colon
HT29 colon = tested on: HT29 colon
RXF 393 renal = tested on: RXF 393 renal
HL-60(TB) leukemia = tested on: HL-60(TB) leukemia
SK-MEL-28 melanoma = tested on: SK-MEL-28 melanoma
MOLT-4 leukemia = tested on: MOLT-4 leukemia
786-0 renal = tested on: 786-0 renal
A549 NSCLC = tested on: A549 NSCLC
SK-MEL-2 melanoma = tested on: SK-MEL-2 melanoma
U251 CNS = tested on: U251 CNS
ACHN renal = tested on: ACHN renal
PC-3 prostate = tested on: PC-3 prostate
OVCAR-8 ovarian = tested on: OVCAR-8 ovarian
SF-539 CNS = tested on: SF-539 CNS
MALME-3M melanoma = tested on: MALME-3M melanoma
UO-31 renal = tested on: UO-31 renal
SNB-19 CNS = tested on: SNB-19 CNS
TK-10 renal = tested on: TK-10 renal
DU-145 prostate = tested on: DU-145 prostate
NCI-H23 lung = tested on: NCI-H23 lung
MDA-MB-231 breast = tested on: MDA-MB-231 breast
CAKI-1 renal = tested on: CAKI-1 renal
OVCAR-4 ovarian = tested on: OVCAR-4 ovarian
NCI-H226 lung = tested on: NCI-H226 lung

NCCN.O=C([O-])CN1CCOCC1.[OH-].[Pt+4]
GI50 (SF-295 CNS): > 100 µM
TGI (SF-295 CNS): > 100 µM
GI50 (EKVX NSCLC): > 100 µM
TGI (EKVX NSCLC): > 100 µM
GI50 (HCT-116 colon): > 100 µM
TGI (HCT-116 colon): > 100 µM
GI50 (HCT-15 colon): > 100 µM
TGI (HCT-15 colon): > 100 µM
GI50 (IGROV1 ovarian): > 100 µM
TGI (IGROV1 ovarian): > 100 µM
GI50 (SK-OV-3 ovarian): > 100 µM
TGI (SK-OV-3 ovarian): > 100 µM
GI50 (SK-MEL-5 melanoma): > 100 µM
TGI (SK-MEL-5 melanoma): > 100 µM
GI50 (NCI/ADR-RES ovarian): > 100 µM
TGI (NCI/ADR-RES ovarian): > 100 µM
GI50 (NCI-H460 lung): 37.5 µM
TGI (NCI-H460 lung): > 100 µM
GI50 (UACC-257 melanoma): > 100 µM
TGI (UACC-257 melanoma): > 100 µM
GI50 (KM12 colon): > 100 µM
TGI (KM12 colon): > 100 µM
GI50 (HOP-92 NSCLC): > 100 µM
TGI (HOP-92 NSCLC): > 100 µM
GI50 (SW-620 colon): > 100 µM
TGI (SW-620 colon): > 100 µM
GI50 (SF-268 CNS): > 100 µM
TGI (SF-268 CNS): > 100 µM
GI50 (HCC-2998 colon): > 100 µM
TGI (HCC-2998 colon): > 100 µM
GI50 (SR leukemia): > 100 µM
TGI (SR leukemia): > 100 µM
GI50 (BT-549 breast): > 100 µM
TGI (BT-549 breast): > 100 µM
GI50 (HOP-62 NSCLC): > 100 µM
TGI (HOP-62 NSCLC): > 100 µM
GI50 (CCRF-CEM leukemia): > 100 µM
TGI (CCRF-CEM leukemia): > 100 µM
GI50 (MDA-MB-435): > 100 µM
TGI (MDA-MB-435): > 100 µM
GI50 (OVCAR-3 ovarian): > 100 µM
TGI (OVCAR-3 ovarian): > 100 µM
GI50 (SNB-75 CNS): > 100 µM
TGI (SNB-75 CNS): > 100 µM
GI50 (M14 melanoma): > 100 µM
TGI (M14 melanoma): > 100 µM
GI50 (LOX IMVI melanoma): > 100 µM
TGI (LOX IMVI melanoma): > 100 µM
GI50 (NCI-H522 lung): > 100 µM
TGI (NCI-H522 lung): > 100 µM
GI50 (SN12C renal): > 100 µM
TGI (SN12C renal): > 100 µM
GI50 (MCF7 breast): > 100 µM
TGI (MCF7 breast): > 100 µM
GI50 (OVCAR-5 ovarian): > 100 µM
TGI (OVCAR-5 ovarian): > 100 µM
GI50 (A498 renal): > 100 µM
TGI (A498 renal): > 100 µM
GI50 (T-47D breast): > 100 µM
TGI (T-47D breast): > 100 µM
GI50 (HS 578T breast): > 100 µM
TGI (HS 578T breast): > 100 µM
GI50 (UACC-62 melanoma): > 100 µM
TGI (UACC-62 melanoma): > 100 µM
GI50 (MDA-N): > 100 µM
TGI (MDA-N): > 100 µM
GI50 (COLO 205 colon): > 100 µM
TGI (COLO 205 colon): > 100 µM
GI50 (HT29 colon): > 100 µM
TGI (HT29 colon): > 100 µM
GI50 (RXF 393 renal): > 100 µM
TGI (RXF 393 renal): > 100 µM
GI50 (HL-60(TB) leukemia): 15.8 µM
TGI (HL-60(TB) leukemia): > 100 µM
GI50 (SK-MEL-28 melanoma): > 100 µM
TGI (SK-MEL-28 melanoma): > 100 µM
GI50 (MOLT-4 leukemia): > 100 µM
TGI (MOLT-4 leukemia): > 100 µM
GI50 (786-0 renal): > 100 µM
TGI (786-0 renal): > 100 µM
GI50 (A549 NSCLC): > 100 µM
TGI (A549 NSCLC): > 100 µM
GI50 (SK-MEL-2 melanoma): > 100 µM
TGI (SK-MEL-2 melanoma): > 100 µM
GI50 (U251 CNS): > 100 µM
TGI (U251 CNS): > 100 µM
GI50 (ACHN renal): > 100 µM
TGI (ACHN renal): > 100 µM
GI50 (PC-3 prostate): > 100 µM
TGI (PC-3 prostate): > 100 µM
GI50 (OVCAR-8 ovarian): > 100 µM
TGI (OVCAR-8 ovarian): > 100 µM
GI50 (SF-539 CNS): > 100 µM
TGI (SF-539 CNS): > 100 µM
GI50 (MALME-3M melanoma): > 100 µM
TGI (MALME-3M melanoma): > 100 µM
GI50 (UO-31 renal): > 100 µM
TGI (UO-31 renal): > 100 µM
GI50 (SNB-19 CNS): > 100 µM
TGI (SNB-19 CNS): > 100 µM
GI50 (TK-10 renal): > 100 µM
TGI (TK-10 renal): > 100 µM
GI50 (DU-145 prostate): > 100 µM
TGI (DU-145 prostate): > 100 µM
GI50 (NCI-H23 lung): 60.9 µM
TGI (NCI-H23 lung): > 100 µM
GI50 (MDA-MB-231 breast): > 100 µM
TGI (MDA-MB-231 breast): > 100 µM
GI50 (CAKI-1 renal): > 100 µM
TGI (CAKI-1 renal): > 100 µM
GI50 (OVCAR-4 ovarian): > 100 µM
TGI (OVCAR-4 ovarian): > 100 µM
GI50 (NCI-H226 lung): > 100 µM
TGI (NCI-H226 lung): > 100 µM

From PubChem BioAssay (NCI)
